EP0089538A1, “Optically active derivatives of phenoxy-benzoic acid, process for their preparation and their use as herbicides” (BAYER AG, priority 1982, dated 1983)

Tests used:
Assay type in all cases: in vivo
[1] = test system: Rüben; test: Post-emergence test; conditions: % damage vs untreated control after three weeks
From the text: (§1) Post-emergence-Test Lösungsmittel: 5 Gewichtsteile Aceton Emulgator : 1 Gewichtsteil Alkylarylpolyglycolether
(§2) Zur Herstellung einer zweckmäßigen Wirkstoffzubereitung vermischt man 1 Gewichtsteil Wirkstoff mit der angegebenen Menge Lösungsmittel, gibt die angegebene Menge Emulgator zu und verdünnt das Konzentrat mit Wasser auf die gewünschte Konzentration.
(§3) Mit der Wirkstoffzubereitung spritzt man Testpflanzen, welche eine Höhe von 5 - 15 cm haben so, daß die jeweils gewünschten Wirkstoffmengen pro Flächeneinheit ausgebracht werden. Die Konzentration der Spritzbrühe wird so gewählt, daß in 2000 1 Wasser/ha die jeweils gewünschten Wirkstoffmengen ausgebracht werden. Nach drei Wochen wird der Schädigungsgrad der Pflanzen bonitiert in % Schädigung im Vergleich zur Entwicklung der unbehandelten Kontrolle. Es bedeuten: • 0 % = keine Wirkung (wie unbehandelte Kontrolle) 100 % = totale Vernichtung

[2] = test system: Soja; test: Post-emergence test; conditions: % damage vs untreated control after three weeks
From the text: as §1, §2, §3

[3] = test system: Dicotyledoneae; test: Post-emergence test; conditions: average effect on several dicots, % damage vs untreated control after three weeks
From the text: as §1, §2, §3

[4] = test system: Monocotyledoneae; test: Post-emergence test; conditions: average effect on several monocots, % damage vs untreated control after three weeks
From the text: as §1, §2, §3

[5] = test system: Mais; test: Post-emergence test; conditions: % damage vs untreated control after three weeks
From the text: as §1, §2, §3

[6] = test system: Rüben; test: Pre-emergence test; conditions: % damage vs untreated control after three weeks
From the text: (§4) Pre-emergence-Test Lösungsmittel: 5 Gewichtsteile Aceton Emulgator: 1 Gewichtsteil Alkylarylpolyglycolether
as §2
(§5) Samen der Testpflanzen werden in normalen Boden ausgesät und nach 24 Stunden mit der Wirkstoffzubereitung begossen. Dabei hält man die Wassermenge pro Flächeneinheit zweckmäßigerweise konstant. Die Wirkstoffkonzentration in der Zubereitung spielt keine Rolle, entscheidend ist nur die Aufwandmenge des Wirkstoffs pro Flächeneinheit. Nach drei Wochen wird der Schädigungsgrad der Pflanzen bonitiert in % Schädigung im Vergleich zur Entwicklung der unbehandelten Kontrolle. Es bedeuten: • 0 % = keine Wirkung (wie unbehandelte Kontrolle) 100 % = totale Vernichtung

[7] = test system: Soja; test: Pre-emergence test; conditions: % damage vs untreated control after three weeks
From the text: as §4, §2, §5

[8] = test system: Dicotyledoneae; test: Pre-emergence test; conditions: average effect on several dicots, % damage vs untreated control after three weeks
From the text: as §4, §2, §5

[9] = test system: Monocotyledoneae; test: Pre-emergence test; conditions: average effect on several monocots, % damage vs untreated control after three weeks
From the text: as §4, §2, §5

[10] = test system: Mais; test: Pre-emergence test; conditions: % damage vs untreated control after three weeks
From the text: as §4, §2, §5

[11] = test system: Testpflanzen; test: Pre-emergence test, overall comparison with racemates; conditions: compared with the corresponding racemic compounds (A) and (B)
From the text: as §4, §2, §5

[12] = test system: Testpflanzen; test: Post-emergence test, overall comparison with racemates; conditions: compared with the corresponding racemic compounds (A) and (B)
From the text: as §1, §2, §3

Row | SMILES | Wirkung (in %) Rüben ([1]; 1 kg/ha) | Wirkung (in %) Soja ([2]; 1 kg/ha) | Wirkung (in %) Dicotyledoneae ([3]; 1 kg/ha) | Wirkung (in %) Monocotyledoneae ([4]; 1 kg/ha) | Wirkung (in %) Mais ([5]; 1 kg/ha) | Wirkung (in %) Rüben ([6]; 1 kg/ha) | Wirkung (in %) Soja ([7]; 1 kg/ha) | Wirkung (in %) Dicotyledoneae ([8]; 1 kg/ha) | Wirkung (in %) Monocotyledoneae ([9]; 1 kg/ha) | Wirkung (in %) Mais ([10]; 1 kg/ha) | herbizide Wirksamkeit [11] | herbizide Wirksamkeit [12] | further results
1 | CCOC(=O)C(C)OC(=O)c1cc(Oc2c(Cl)cc(C(F)(F)F)cc2Cl)ccc1[N+](=O)[O-] (racemic) [(A), 5-(2,6-Dichlor-4-trifluormethyl-phenoxy)-2-nitro-benzoesäure-(1-ethoxycarbonyl-ethyl)-ester, reference compound] | 100% | 100% | 100% | 92% | 95% | 100% | 40% | 95,6% | 69,3% | 10% | – | – | –
2 | CCOC(=O)C(C)OC(=O)c1cc(Oc2ccc(C(F)(F)F)cc2Cl)ccc1[N+](=O)[O-] (racemic) [(B), 5-(2-Chlor-4-trifluormethyl-phenoxy)-2-nitro-benzoesäure-(1-ethoxycarbonylethyl)-ester, reference compound] | 100% | 99% | 99,9% | 89,1% | 95% | 100% | 0% | 81,4% | 61,4% | 0% | – | – | –
3 | CCOC(=O)[C@H](C)OC(=O)c1cc(Oc2c(Cl)cc(C(F)(F)F)cc2Cl)ccc1[N+](=O)[O-] [(1), 5-(2,6-Dichlor-4-trifluor-methyl-phenoxy)-2-nitrobenzoesäure-(1-ethoxycarbonyl-ethyl)-ester] | – | – | – | – | – | – | – | – | – | – | bessere herbizide Wirksamkeit | bessere herbizide Wirksamkeit | Wirkung (in %) Rüben ([1]; 0,45 kg/ha): 100%; Wirkung (in %) Soja ([2]; 0,45 kg/ha): 100%; Wirkung (in %) Dicotyledoneae ([3]; 0,45 kg/ha): 99,9%; Wirkung (in %) Monocotyledoneae ([4]; 0,45 kg/ha): 89,9%; Wirkung (in %) Mais ([5]; 0,45 kg/ha): 95%; Wirkung (in %) Rüben ([6]; 0,45 kg/ha): 99%; Wirkung (in %) Soja ([7]; 0,45 kg/ha): 10%; Wirkung (in %) Dicotyledoneae ([8]; 0,45 kg/ha): 88,6%; Wirkung (in %) Monocotyledoneae ([9]; 0,45 kg/ha): 42,1%; Wirkung (in %) Mais ([10]; 0,45 kg/ha): 0%
4 | CCOC(=O)[C@H](C)OC(=O)c1cc(Oc2ccc(C(F)(F)F)cc2Cl)ccc1[N+](=O)[O-] [(2), 5-(2-Chlor-4-trifluormethyl-phenoxy)-2-nitro-benzoesäure-(1-ethoxycarbonyl-ethyl)-ester] | – | – | – | – | – | – | – | – | – | – | bessere herbizide Wirksamkeit | bessere herbizide Wirksamkeit | Wirkung (in %) Rüben ([1]; 0,51 kg/ha): 100%; Wirkung (in %) Soja ([2]; 0,51 kg/ha): 99%; Wirkung (in %) Dicotyledoneae ([3]; 0,51 kg/ha): 99,9%; Wirkung (in %) Monocotyledoneae ([4]; 0,51 kg/ha): 83,3%; Wirkung (in %) Mais ([5]; 0,51 kg/ha): 100%; Wirkung (in %) Rüben ([6]; 0,51 kg/ha): 99%; Wirkung (in %) Soja ([7]; 0,51 kg/ha): 0%; Wirkung (in %) Dicotyledoneae ([8]; 0,51 kg/ha): 77,1%; Wirkung (in %) Monocotyledoneae ([9]; 0,51 kg/ha): 74,1%; Wirkung (in %) Mais ([10]; 0,51 kg/ha): 0%
